Positions of bridges follow the written chain, without caps; N, C: chain ends. Residues, ends and D or L forms follow the SMILES beside them.
What was measured:
isolated rat kidney = assay: Renal function in the isolated perfused rat kidney
[1] = test system: precontracted rabbit or rat aortic preparations; assay: Vasorelaxant potency on precontracted aortic rings; conditions: for IC50: thoracic aortic segments precontracted with histamine or norepinephrine, read-out: IC50 (concentration producing half-maximal relaxation of the precontracted tissue); for vasorelaxant potency in words: precontracted vascular preparations
Procedure: Synthetic ANVP compounds were compared to partially purified (gel filtration step) and purified (HPLC) native ANVP compounds (See FIGS. 3A-D) for their ability to relax histamine-contracted aortic rings. Rings were suspended in 10 ml aerated Kreb's buffer under 1.5 gm passive tension. Rings were precontracted with 5 X 10^-6 M histamine, washed and allowed to return to baseline tension, as described ([…]., supra). Increasing amounts of purified or synthetic ANVP compounds were then added in cumulative fashion. […] The relaxation effects of various ANVP compounds on precontracted rabbit or rat aortic preparations are shown in Table III. | Thoracic aortic segments were precontracted with histamine or | norepinephrine as previously described. Various doses of ANVP compounds | were then added and relaxation of the precontracted state was monitored. | Data are expressed as the concentration of each peptide required to | produce a halfmaximal relaxation of the precontracted tissue (IC50).

[2] = test system: ANVP receptor sites on cultured bovine vascular smooth muscle cells; assay: Displacement of specific [125I]rANVP(126-150) binding on cultured smooth muscle cells; conditions: for Ki: concentration of half-maximal displacement
From the text: Specific and saturable binding is a necessary component of a hormone/receptor interaction.
Various concentrations of the peptides described were examined for […]

intact rats = assay: Natriuretic and diuretic effects in intact rats (bolus injection); format: in vivo, rat
Procedure: Synthetic ANVP compounds […] hANVP(127-151) were also found to be natriuretic in the intact rat. These compounds were administered as a bolus injection to Inactin anesthetized rats (100 mg/kg, average weight 399 g) which were maintained on a constant infusion of normal saline at 2.2 ml/hr. […] Data are expressed as mean±SE.

anesthetized dogs = assay: Hemodynamic, renal and metabolic effects in anesthetized dogs; format: in vivo, dog
Procedure: Renal and hemodynamic effects have also been measured in anesthetized dogs receiving a constant infusion of the compound rANVP(126-149) (1 μg/kg bolus, followed by 0.1 μg/kg/min for 1 hour). Effects were immediately detected on blood pressure, GFR and urine flow rate and electrolyte excretion and were sustained throughout the infusion. The "experimental" data presented for these parameters in […] are the average values obtained during the infusion. Mean arterial pressure (MAP) fell consistently by 10-15% while GFR rose by 25-35%, in association with a sustained diuresis and natriuresis (Table VIII). The parameters returned to control (i.e. pre-infusion) levels following termination of the infusion.

[3] = dose 1 μg, experimental period E, mean of 3-8 experiments
[4] = dose 0.1 μg, experimental period E, mean of 3-8 experiments
[5] = experimental peak value, 0.1 to 1.0 μg added to perfusate, mean ± SE of 4 kidneys
[6] = experimental: average during infusion
[7] = recovery, after termination of the infusion

SMILES: CC[C@H](C)[C@@H]1NC(=O)[C@H](CCCNC(=N)N)NC(=O)CNC(=O)CNC(=O)[C@H](Cc2ccccc2)NC(=O)[C@@H](NC(=O)[C@H](CO)NC(=O)[C@H](CO)NC(=O)[C@@H](N)CCCNC(=N)N)CSSC[C@@H](C(=O)N[C@@H](CC(N)=O)C(=O)N[C@@H](CO)C(=O)N[C@@H](Cc2ccccc2)C(=O)N[C@@H](CCCNC(=N)N)C(=O)N[C@@H](Cc2ccc(O)cc2)C(=O)O)NC(=O)CNC(=O)[C@H](CC(C)C)NC(=O)CNC(=O)[C@H](CO)NC(=O)[C@H](CCC(N)=O)NC(=O)[C@H](C)NC(=O)[C@@H](C)NC(=O)[C@H]([C@@H](C)CC)NC(=O)[C@H](CCCNC(=N)N)NC(=O)[C@H](CC(=O)O)NC1=O [[D-Ala^138]rANVP(126-150), H-Arg-Ser-Ser-Cys-Phe-Gly-Gly-Arg-Ile-Asp-Arg-Ile-[D-Ala]-Ala-Gln-Ser-Gly-Leu-Gly-Cys-Asn-Ser-Phe-Arg-Tyr-OH]
- .V (urine flow rate) (isolated rat kidney; [3]): 57.5 µL/min
- GFR (isolated rat kidney; [3]): 0.54 mL/min
- UNa.V (urinary sodium excretion rate) (isolated rat kidney; [3]): 2.53 μEq/min
- IC50 [1]: 3.1 nM
- Ki ([2]; Series A smooth muscle cells): 20 nM

SMILES: CC[C@H](C)[C@@H]1NC(=O)[C@H](CCCNC(=N)N)NC(=O)[C@H](CC(=O)O)NC(=O)[C@H]([C@@H](C)CC)NC(=O)[C@H](CCCNC(=N)N)NC(=O)CNC(=O)CNC(=O)[C@H](Cc2ccccc2)NC(=O)[C@@H](NC(=O)[C@H](CO)NC(=O)[C@H](CO)NC(=O)[C@@H](N)CCCNC(=N)N)CSSC[C@@H](C(=O)N[C@@H](CC(N)=O)C(=O)N[C@@H](CO)C(=O)N[C@@H](Cc2ccccc2)C(=O)N[C@@H](CCCNC(=N)N)C(=O)N[C@@H](Cc2ccc(O)cc2)C(=O)O)NC(=O)CNC(=O)[C@H](CC(C)C)NC(=O)[C@@H](C)NC(=O)[C@H](CO)NC(=O)[C@H](CCC(N)=O)NC(=O)[C@H](C)NC(=O)CNC1=O [[D-Ala^142]rANVP(126-150), H-Arg-Ser-Ser-Cys-Phe-Gly-Gly-Arg-Ile-Asp-Arg-Ile-Gly-Ala-gln-Ser-[D-Ala]-Leu-Gly-Cys-Asn-Ser-Phe-Arg-Tyr-OH]
- .V (urine flow rate) (isolated rat kidney; [4]): 58.5 µL/min
- GFR (isolated rat kidney; [4]): 0.75 mL/min
- UNa.V (urinary sodium excretion rate) (isolated rat kidney; [4]): 2.50 μEq/min
- vasorelaxant potency in words [1]: most potent
- IC50 [1]: 0.62 nM
- Ki ([2]; Series A smooth muscle cells): 0.6 nM
- Peak Na+ Excr. (intact rats; dose 3670 pmol/kg): 9.1 ± 0.9 µmol/min
- Peak Urine Vol. (intact rats; dose 3670 pmol/kg): 66.3 ± 3 µL/min

SMILES: CC[C@H](C)[C@@H]1NC(=O)[C@H](CCCNC(=N)N)NC(=O)[C@H](CC(=O)O)NC(=O)[C@@H](CCSC)NC(=O)[C@H](CCCNC(=N)N)NC(=O)CNC(=O)CNC(=O)[C@H](Cc2ccccc2)NC(=O)[C@@H](NC(=O)[C@H](CO)NC(=O)[C@H](CO)NC(=O)[C@@H](N)CCCNC(=N)N)CSSC[C@@H](C(=O)N[C@@H](CC(N)=O)C(=O)N[C@@H](CO)C(=O)N[C@@H](Cc2ccccc2)C(=O)N[C@@H](CCCNC(=N)N)C(=O)N[C@@H](Cc2ccc(O)cc2)C(=O)O)NC(=O)CNC(=O)[C@H](CC(C)C)NC(=O)CNC(=O)[C@H](CO)NC(=O)[C@H](CCC(N)=O)NC(=O)[C@H](C)NC(=O)CNC1=O [[D-Met^135]hANVP(127-151), H-Arg-Ser-Ser-Cys-Phe-Gly-Arg-[D-Met]-Asp-Arg-Ile-Gly-Ala-Gln-Ser-Gly-Leu-Gly-Cys-Asn-Ser-Phe-Arg-Tyr-OH]
- IC50 [1]: 7.6 nM
- Ki ([2]; Series B smooth muscle cells): 4.27 nM

SMILES: CC[C@H](C)[C@@H]1NC(=O)[C@H](CCCNC(=N)N)NC(=O)[C@H](CC(=O)O)NC(=O)[C@H](CCSC)NC(=O)[C@H](CCCNC(=N)N)NC(=O)CNC(=O)CNC(=O)[C@H](Cc2ccccc2)NC(=O)[C@@H](NC(=O)[C@H](CO)NC(=O)[C@H](CO)NC(=O)[C@@H](N)CCCNC(=N)N)CSSC[C@@H](C(=O)O)NC(=O)CNC(=O)[C@H](CC(C)C)NC(=O)CNC(=O)[C@H](CO)NC(=O)[C@H](CCC(N)=O)NC(=O)[C@H](C)NC(=O)CNC1=O [hANVP(127-146)] (H-RSSCFGGRMDRIGAQSGLGC-OH; disulfide 4-20)
- vasorelaxant potency in words [1]: substantially diminished potency
- IC50 [1]: 100 nM
- Ki ([2]; Series B smooth muscle cells): 1.82 nM

SMILES: CC[C@H](C)[C@@H]1NC(=O)[C@H](CCCNC(=N)N)NC(=O)[C@H](CC(=O)O)NC(=O)[C@H]([C@@H](C)CC)NC(=O)[C@H](CCCNC(=N)N)NC(=O)CNC(=O)CNC(=O)[C@H](Cc2ccccc2)NC(=O)[C@@H](NC(=O)[C@H](CO)NC(=O)[C@H](CO)NC(=O)[C@@H](N)CCCNC(=N)N)CSSC[C@@H](C(=O)N[C@@H](CC(N)=O)C(=O)N[C@@H](CO)C(N)=O)NC(=O)CNC(=O)[C@H](CC(C)C)NC(=O)CNC(=O)[C@H](CO)NC(=O)[C@H](CCC(N)=O)NC(=O)[C@H](C)NC(=O)CNC1=O [rANVP(126-147)-NH2] (H-RSSCFGGRIDRIGAQSGLGCNS-NH2; disulfide 4-20)
- IC50 [1]: 13 nM
- Ki ([2]; Series B smooth muscle cells): 1.83 nM

SMILES: CC[C@H](C)[C@@H]1NC(=O)[C@H](CCCNC(=N)N)NC(=O)[C@H](CC(=O)O)NC(=O)[C@H]([C@@H](C)CC)NC(=O)[C@H](CCCNC(=N)N)NC(=O)CNC(=O)CNC(=O)[C@H](Cc2ccccc2)NC(=O)[C@@H](NC(=O)[C@H](CO)NC(=O)[C@H](CO)NC(=O)[C@@H](N)CCCNC(=N)N)CSSC[C@@H](C(=O)N[C@@H](CC(N)=O)C(=O)N[C@@H](CO)C(=O)N[C@@H](Cc2ccccc2)C(=O)O)NC(=O)CNC(=O)[C@H](CC(C)C)NC(=O)CNC(=O)[C@H](CO)NC(=O)[C@H](CCC(N)=O)NC(=O)[C@H](C)NC(=O)CNC1=O [rANVP(126-148)] (H-RSSCFGGRIDRIGAQSGLGCNSF-OH; disulfide 4-20)
- vasorelaxant potency in words [1]: substantially less potent than rANVP(126-150)
- IC50 [1]: 7.5 nM
- binding activity in smooth muscle cells relative to rANVP(126-150), in words [2]: comparable binding activity to rANVP(126-150)
- Ki ([2]; Series B smooth muscle cells): 1.32 nM
- Peak Na+ Excr. (intact rats; dose 455 pmol/kg): 56.3 ± 8 µmol/min
- Peak Urine Vol. (intact rats; dose 455 pmol/kg): 6.8 ± 0.5 µL/min

SMILES: CC[C@H](C)[C@@H]1NC(=O)[C@H](CCCNC(=N)N)NC(=O)[C@H](CC(=O)O)NC(=O)[C@H]([C@@H](C)CC)NC(=O)[C@H](CCCNC(=N)N)NC(=O)CNC(=O)CNC(=O)[C@H](Cc2ccccc2)NC(=O)[C@@H](NC(=O)[C@H](CO)NC(=O)[C@H](CO)NC(=O)[C@@H](N)CCCNC(=N)N)CSSC[C@@H](C(=O)N[C@@H](CC(N)=O)C(=O)N[C@@H](CO)C(=O)N[C@@H](Cc2ccccc2)C(=O)N[C@@H](CCCNC(=N)N)C(=O)O)NC(=O)CNC(=O)[C@H](CC(C)C)NC(=O)CNC(=O)[C@H](CO)NC(=O)[C@H](CCC(N)=O)NC(=O)[C@H](C)NC(=O)CNC1=O [rANVP(126-149)] (H-RSSCFGGRIDRIGAQSGLGCNSFR-OH; disulfide 4-20)
- .V (urine flow rate) (isolated rat kidney; [5]): 97.6 ± 19.4 µL/min
- FEK (fractional potassium excretion) (isolated rat kidney; [5]): 52.1 ± 6.2%
- FENa (fractional sodium excretion) (isolated rat kidney; [5]): 6.6 ± 2.0%
- FF (filtration fraction) (isolated rat kidney; [5]): 0.021 ± 0.001
- FLNa (filtered load of sodium) (isolated rat kidney; [5]): 90.1 ± 5.2 μEq/min
- GFR (glomerular filtration rate) (isolated rat kidney; [5]): 0.63 ± 0.03 mL/min
- RVR (renal vascular resistance) (isolated rat kidney; [5]): 3.9 ± 0.3 mmHg/ml/min
- TNa (tubular reabsorption of sodium) (isolated rat kidney; [5]): 84.2 ± 4.8 μEq/min
- UK .V (urinary potassium excretion rate) (isolated rat kidney; [5]): 1.46 ± 0.16 μEq/min
- UNa.V (urinary sodium excretion rate) (isolated rat kidney; [5]): 6.01 ± 1.99 μEq/min
- Ki ([2]; Series B smooth muscle cells): 0.89 nM
- natriuretic in the intact rat, in words (intact rats; bolus injection, Inactin anesthetized rats): natriuretic
- fall of mean arterial pressure (MAP) (anesthetized dogs; during infusion): 10-15%
- rise of GFR (anesthetized dogs; during infusion): 25-35%
- .V (urine flow rate) (anesthetized dogs; [6]): 1.06 ± 0.14 mL/min
- FEH2O (fractional water excretion) (anesthetized dogs; [6]): 3.4 ± 0.3%
- FEK (anesthetized dogs; [6]): 34 ± 6%
- FENa (anesthetized dogs; [6]): 4.1 ± 0.5%
- GFR (anesthetized dogs; [6]): 32.3 ± 4.1 mL/min
- PA (plasma aldosterone) (anesthetized dogs; [6]): 5.4 ± 0.9 ng/100 ml
- PRA (plasma renin activity) (anesthetized dogs; [6]): 8.3 ± 1.8 ng/mL/h
- UK .V (anesthetized dogs; [6]): 36 ± 6 μEq/min
- UNa .V (anesthetized dogs; [6]): 187 ± 35 μEq/min
- MAP (mean arterial pressure) (anesthetized dogs; experimental: average during infusion, 1 μg/kg bolus then 0.1 μg/kg/min for 1 hour): 122 ± 4 mm Hg
- .V (urine flow rate) (anesthetized dogs; [7]): 0.37 ± 0.05 mL/min
- FEH2O (fractional water excretion) (anesthetized dogs; [7]): 1.5 ± 0.2%
- FEK (anesthetized dogs; [7]): 21 ± 4%
- FENa (anesthetized dogs; [7]): 1.9 ± 0.4%
- GFR (anesthetized dogs; [7]): 25.4 ± 3.3 mL/min
- MAP (mean arterial pressure) (anesthetized dogs; [7]): 136 ± 4 mm Hg
- PA (plasma aldosterone) (anesthetized dogs; [7]): 7.0 ± 1.3 ng/100 ml
- PRA (plasma renin activity) (anesthetized dogs; [7]): 14 ± 2.5 ng/mL/h
- UK .V (anesthetized dogs; [7]): 21 ± 4 μEq/min
- UNa .V (anesthetized dogs; [7]): 68 ± 14 μEq/min
